Measured values from patent US12582641B2, “Sulfur-containing compound based on glutarimide skeleton and application thereof” (SHANGHAITECH UNIVERSITY, priority 2019, dated 2026).

System: MM.1S cells
Assay: Proliferation inhibition (IC50) in MM.1S cells, cell viability assay
Conditions: Homo sapiens, MM1.S, 72 h, read-out: IC50 (nM), proliferation inhibitory activity of MM.1S cells (half inhibitory concentration)
Experimental: MM.1S (B lymphoblast) was purchased from ATCC. Complete medium was RPMI1640 supplemented with 10% FBS and 1% Penicillin-Streptomycin. The cells used were identified as correct cells by STR cells, and were negative for mycoplasma through routine inspections.
IC50 values of the compounds of the present disclosure were measured using Cell Titer Blue, Cell Titer GLO, or WST reagent from Promega Company. Assay details are as follows: Cells were seeded in 100 μL RPMI1640 complete medium containing serum at a density of 15,000 cells/well. After 24 h, the inoculated cells were treated with diluted commercial inhibitor and the compounds of the present disclosure to be tested after serial dilution. After the cells were treated with the compounds of the present disclosure to be tested for 72 h, cell viability was determined after adding the cell viability detection kit listed above according to the reagent operating instructions. The negative control was DMSO, and the positive control was a commercial inhibitor, both of which were used to treat the cells through the same method as that of the compounds of the present disclosure. The growth inhibition of the compounds of the present disclosure on cells was plotted by Prism Graphpad software, and the IC50 values of the compounds of the present disclosure were calculated therefrom.
We tested the activities of the compounds of the present invention in MM.1S cell (which overexpressed IKZF1/3 and is highly sensitive to immunomodulatory drugs) through a dose-dependent manner. The cells were treated with the compounds of the present invention at 10 different successively decreasing concentrations (starting at the highest concentration of 10 μM; 5-fold serial dilutions) for 72 h, and then the cell viability determination was performed in accordance with CCK-8 reagent operating instructions. The experiment was repeated more than three times.

IC50 [nM]	Structure (SMILES)
4.73	O=C1CCC(N2Cc3c(SCCCC(F)(F)C(F)(F)F)cccc3C2=O)C(=O)N1 (centres unmarked) [SIAIS1220133, 3-(1-oxo-4-((4,4,5,5,5-pentafluoropentyl)thio)isoindolin-2-yl)piperidine-2,6-dione]
2.73	O=C1CCC(N2Cc3c(SCCCCCCCCS)cccc3C2=O)C(=O)N1 (centres unmarked) [SIAIS1220143, 3-(4-((8-mercaptooctyl)thio)-1-oxoisoindolin-2-yl)piperidine-2,6-dione]
4.73	O=C1CCC(N2Cc3c(SCCCCCCCCC[S+]([O-])CCCC(F)(F)C(F)(F)F)cccc3C2=O)C(=O)N1 (centres unmarked) [SIAIS1220145, 3-(1-oxo-4-((9-((4,4,5,5,5-pentafluoropentyl)sulfinyl)nonyl)thio)isoindolin-2-yl)piperidine-2,6-dione]
1.59	O=C1CCC(N2Cc3c(SCCCCCCCCCS(=O)(=O)CCCC(F)(F)C(F)(F)F)cccc3C2=O)C(=O)N1 (centres unmarked) [SIAIS1220147, 3-(1-oxo-4-((9-((4,4,5,5,5-pentafluoropentyl)sulfonyl)nonyl)thio)isoindolin-2-yl)piperidine-2,6-dione]
0.02	CC12CC3CC(C)(C1)CC(NCCCCCCCSc1cccc4c1CN(C1CCC(=O)NC1=O)C4=O)(C3)C2 (centres unmarked) [SIAIS1220157, 3-(4-((7-((3,5-dimethyladamantan-1-yl)amino)heptyl)thio)-1-oxoisoindolin-2-yl)piperidine-2,6-dione]
0.01	O=C1CCC(N2Cc3c(SCCCCCCCNC4C5CC6CC(C5)CC4C6)cccc3C2=O)C(=O)N1 (centres unmarked) [SIAIS1220159, 3-(4-((7-((adamantan-2-yl)amino)heptyl)thio)-1-oxoisoindolin-2-yl)piperidine-2,6-dione]
0.12	O=C1CCC(N2Cc3c(SCCCCCCCN4CCCC4)cccc3C2=O)C(=O)N1 (centres unmarked) [SIAIS1220161, 3-(1-oxo-4-((7-(pyrrolidin-1-yl)heptyl)thio)isoindolin-2-yl)piperidine-2,6-dione]
0.03	O=C1CCC(N2Cc3c(SCCCCCCCN4CCCCCC4)cccc3C2=O)C(=O)N1 (centres unmarked) [SIAIS1220163, 3-(4-((7-(azepan-1-yl)heptyl)thio)-1-oxoisoindolin-2-yl)piperidine-2,6-dione]
0.25 ± 0.01	O=C1CCC(N2Cc3c(SCc4ccc(CN5CCOCC5)cc4)cccc3C2=O)C(=O)N1 (centres unmarked) [SIAIS1220167, 3-(4-((4-(morpholinomethyl)benzyl)thio)-1-oxoisoindolin-2-yl)piperidine-2,6-dione]
43	O=C(CCCCN1CCCCC1)NCCSc1cccc2c1CN(C1CCC(=O)NC1=O)C2=O (centres unmarked) [SIAIS1220169, N-(2-((2-(2,6-dioxopiperidin-3-yl)-1-oxoisoindolin-4-yl)thio)ethyl)-5-(piperidin-1-yl)pentanamide]
0.044 ± 0.003	O=C1CCC(N2Cc3c(SCCCCCCCNCC45CC6CC(CC(C6)C4)C5)cccc3C2=O)C(=O)N1 (centres unmarked) [SIAIS1220171, 3-(4-((7-(((adamantan-1-yl)methyl)amino)heptyl)thio)-1-oxoisoindolin-2-yl)piperidine-2,6-dione]
0.041 ± 0.018	O=C1CCC(N2Cc3c(SCCCCCCNC45CC6CC(CC(C6)C4)C5)cccc3C2=O)C(=O)N1 (centres unmarked) [SIAIS1220177, 3-(4-((6-((adamantan-1-yl)amino)hexyl)thio)-1-oxoisoindolin-2-yl)piperidine-2,6-dione]
0.036 ± 0.01	O=C1CCC(N2Cc3c(SCCCCCCNC4C5CC6CC(C5)CC4C6)cccc3C2=O)C(=O)N1 (centres unmarked) [SIAIS1220179, 3-(4-((6-((adamantan-2-yl)amino)hexyl)thio)-1-oxoisoindolin-2-yl)piperidine-2,6-dione]
0.197	O=C1CCC(N2Cc3c(SCCCCCCNC4CCCCC4)cccc3C2=O)C(=O)N1 (centres unmarked) [SIAIS1220183, 3-(4-((6-(cyclohexylamino)hexyl)thio)-1-oxoisoindolin-2-yl)piperidine-2,6-dione]

The next lines start with the compound.

Structure (SMILES)	IC50 [nM]
CCN(CC)CCCCCCSc1cccc2c1CN(C1CCC(=O)NC1=O)C2=O (centres unmarked) [SIAIS1220029, 3-(4-((6-(diethylamino)hexyl)thio)-1-oxoisoindolin-2-yl)piperidine-2,6-dione]	1.13
O=C1CCC(N2Cc3c(SCCCCCCCN4CCOCC4)cccc3C2=O)C(=O)N1 (centres unmarked) [SIAIS1220031, 3-(4-((7-morpholinoheptyl)thio)-1-oxoisoindolin-2-yl)piperidine-2,6-dione]	0.22 ± 0.04
CCN(CC)CCCCCCCSc1cccc2c1CN(C1CCC(=O)NC1=O)C2=O (centres unmarked) [SIAIS1220033, 3-(4-((7-(diethylamino)heptyl)thio)-1-oxoisoindolin-2-yl)piperidine-2,6-dione]	0.23 ± 0.08
CCN(CC)CCNCCCCCSc1cccc2c1CN(C1CCC(=O)NC1=O)C2=O (centres unmarked) [SIAIS1220035, 3-(4-((5-((2-(diethylamino)ethyl)amino)pentyl)thio)-1-oxoisoindolin-2-yl)piperidine-2,6-dione]	4.13 ± 1.43
CCN(CC)CCNCCCCCCCCSc1cccc2c1CN(C1CCC(=O)NC1=O)C2=O (centres unmarked) [SIAIS1220037, 3-(4-((8-((2-(diethylamino)ethyl)amino)octyl)thio)-1-oxoisoindolin-2-yl)piperidine-2,6-dione]	0.83 ± 0.39
O=C1CCC(N2Cc3c(SCCCCCCCCCCCN4CCOCC4)cccc3C2=O)C(=O)N1 (centres unmarked) [SIAIS1220045, 3-(4-((11-morpholinoundecyl)thio)-1-oxoisoindolin-2-yl)piperidine-2,6-dione]	0.36 ± 0.13
CCN(CC)CCCCCCCCCCCSc1cccc2c1CN(C1CCC(=O)NC1=O)C2=O (centres unmarked) [SIAIS1220047, 3-(4-((11-(diethylamino)undecyl)thio)-1-oxoisoindolin-2-yl)piperidine-2,6-dione]	0.11 ± 0.01
CN1CCN(C2CCN(CCCCCCCCSc3cccc4c3CN(C3CCC(=O)NC3=O)C4=O)CC2)CC1 (centres unmarked) [SIAIS1220049, 3-(4-((8-(4-(4-methylpiperazin-1-yl)piperidin-1-yl)octyl)thio)-1-oxoisoindolin-2-yl)piperidine-2,6-dione]	0.26
CN1CCCN(CCCCCCCCSc2cccc3c2CN(C2CCC(=O)NC2=O)C3=O)CC1 (centres unmarked) [SIAIS1220051, 3-(4-((8-(4-methyl-1,4-diazepan-1-yl)octyl)thio)-1-oxoisoindolin-2-yl)piperidine-2,6-dione]	0.75
O=C1CCC(N2Cc3c(SCCCCCCCCN4CCC(F)(F)CC4)cccc3C2=O)C(=O)N1 (centres unmarked) [SIAIS1220055, 3-(4-((8-(4,4-difluoropiperidin-1-yl)octyl)thio)-1-oxoisoindolin-2-yl)piperidine-2,6-dione]	0.26
CC1CN(CCCCCCCCSc2cccc3c2CN(C2CCC(=O)NC2=O)C3=O)CC(C)N1 (centres unmarked) [SIAIS1220057, 3-(4-((8-(3,5-dimethylpiperazin-1-yl)octyl)thio)-1-oxoisoindolin-2-yl)piperidine-2,6-dione]	0.77
O=C1CCC(N2Cc3c(SCCCCCCCCCSc4cccc5c4CN(C4CCC(=O)NC4=O)C5=O)cccc3C2=O)C(=O)N1 (centres unmarked) [SIAIS1220059B, 3,3′-((nonane-1,9-diylbis(sulfanediyl))bis(1-oxoisoindoline-4,2-diyl))bis(piperidine-2,6-dione)]	1.7
O=C1CCC(N2Cc3c(SCCCCCCCCN4CCN(CCCCCCCCSc5cccc6c5CN(C5CCC(=O)NC5=O)C6=O)CC4)cccc3C2=O)C(=O)N1 (centres unmarked) [SIAIS1220061, 3,3′-(((piperazine-1,4-diylbis(octane-8,1-diyl))bis(sulfanediyl))bis(1-oxoisoindoline-4,2-diyl))bis(piperidine-2,6-dione)]	0.49
O=C1CCC(N2Cc3c(SCCCCCCCCCN4CCOCC4)cccc3C2=O)C(=O)N1 (centres unmarked) [SIAIS1220065, 3-(4-((9-morpholinononyl)thio)-1-oxoisoindolin-2-yl)piperidine-2,6-dione]	0.49
CCN(CC)CCCCCCCCCSc1cccc2c1CN(C1CCC(=O)NC1=O)C2=O (centres unmarked) [SIAIS1220067, 3-(4-((9-(diethylamino)nonyl)thio)-1-oxoisoindolin-2-yl)piperidine-2,6-dione]	0.25
O=C1CCC(N2Cc3c(SCCCCCO)cccc3C2=O)C(=O)N1 (centres unmarked) [SIAIS1220069, 3-(4-((5-hydroxypentyl)thio)-1-oxoisoindolin-2-yl)piperidine-2,6-dione]	3.21
O=C1CCC(N2Cc3c(SCCCCCCCCNC45CC6CC(CC(C6)C4)C5)cccc3C2=O)C(=O)N1 (centres unmarked) [SIAIS1220087, 3-(4-((8-((adamantan-1-yl)amino)octyl)thio)-1-oxoisoindolin-2-yl)piperidine-2,6-dione]	0.12
O=C1CCC(N2Cc3c(SCCCCCCCCNC4C5CC6CC(C5)CC4C6)cccc3C2=O)C(=O)N1 (centres unmarked) [SIAIS1220089, 3-(4-((8-((adamantan-2-yl)amino)octyl)thio)-1-oxoisoindolin-2-yl)piperidine-2,6-dione]	0.07
CC[N+](CC)(CC)CCCCCCCCSc1cccc2c1CN(C1CCC(=O)NC1=O)C2=O (centres unmarked) [SIAIS1220093, 8-((2-(2,6-dioxopiperidin-3-yl)-1-oxoisoindolin-4-yl)thio)-N,N,N-triethyloctan-1-aminium chloride]	8.2
O=C1CCC(N2Cc3c(SCCCCCCCN4CCCCC4)cccc3C2=O)C(=O)N1 (centres unmarked) [SIAIS1220105, 3-(1-oxo-4-((7-(piperidin-1-yl)heptyl)thio)isoindolin-2-yl)piperidine-2,6-dione]	0.06
CC(C)N(CCCCCCCSc1cccc2c1CN(C1CCC(=O)NC1=O)C2=O)C(C)C (centres unmarked) [SIAIS1220107, 3-(4-((7-(diisopropylamino)heptyl)thio)-1-oxoisoindolin-2-yl)piperidine-2,6-dione]	0.03
O=C1CCC(N2Cc3c(SCCCCCCC(=O)N4CCCCC4)cccc3C2=O)C(=O)N1 (centres unmarked) [SIAIS1220115, 3-(1-oxo-4-((7-oxo-7-(piperidin-1-yl)heptyl)thio)isoindolin-2-yl)piperidine-2,6-dione]	0.05
CC(C)N(C(=O)CCCCCCSc1cccc2c1CN(C1CCC(=O)NC1=O)C2=O)C(C)C (centres unmarked) [SIAIS1220117, 7-((2-(2,6-dioxopiperidin-3-yl)-1-oxoisoindolin-4-yl)thio)-N,N-diisopropylheptanamide]	0.07
O=C1CCC(N2Cc3c(SCCCCCCCCCSCCCC(F)(F)C(F)(F)F)cccc3C2=O)C(=O)N1 (centres unmarked) [SIAIS1220131, 3-(1-oxo-4-((9-((4,4,5,5,5-pentafluoropentyl)thio)nonyl)thio)isoindolin-2-yl)piperidine-2,6-dione]	9.71
